In patent publication US10351519B2, “Sulfamate derivative compounds, processes for preparing them and their uses” (BIO-PHARM SOLUTIONS CO., LTD., priority 2016, dated 2019):

Legend:
Type in all cases: in vivo
SD rats = assay: Anti-epilepsy activity, MES test, rat
Experimental: (§1) In the MES test (Ref., G. Villetti et al. Neuropharmacology 40 (2001) 866-878), an electrical stimulus (mice: 50 mA, 60 Hz, 0.2 sec, and rats: 150 mA, 60 Hz, 0.2 sec in the test animal) supplied by an 11A Shocker (IITC Life Science Company) was delivered through corneal electrodes. All mice or rats assigned to any electroshock at peak time were treated with each test compound sample which was dissolved in 30% PEG 400 or 20% tween 80 prepared by saline solvent applied orally before the test. […] Three doses of the test sample were administered orally to 9-18 animals (3-6 mice per dose) for evaluating the respective doses at which 50% of the animals were protected from seizure (ED50). The ED50 value (median effective dose) was calculated by Litchfield and Wicoxon log-probit method which is a dose-response relationship. Experimental animals, male ICR mice and male SD rats, were purchased from OrientBio, Samtako, or Nara Biotech, Korea, and housed in cages (4-5 mice or 3 rats per cage) for 4-5 days. The range of mice body weight was between 19 and 25 grams and range of rats body weight was between 100 and 130 grams.

ICR mice = assay: Anti-epilepsy activity, MES test, mouse; conditions: for ED50 / responders at 50 mg/kg / responders at 30 mg/kg: po; for responders at 50 mg/kg / responders at 30 mg/kg: read-out: MES test (po) efficacy %
Experimental: as §1

Sprague-Dawley rats [1] = assay: Antiallodynic activity on Complete Freund's Adjuvant (CFA)-induced inflammatory pain model; conditions: intraperitoneally; for response vs control in vivo at 50 mg/kg: read-out: CFA-induced pain model efficacy %
Experimental: Male, Sprague-Dawley rats (210-250 g, Nara Bio, Korea) were habituated for 1 week before CFA injection and allowed free access to food and water throughout the experimentation. Room temperature and humidity were maintained at 24±2 and 50±10%, respectively.
CFA-induced inflammatory pain was induced by the procedure of Nagakura et al. (2003) and Gregory P. et al. (2010) with minor modifications. CFA (sigma, USA) was injected in the right plantar with a 100 ul volume under gaseous anesthesia with isoflurane. Sham controls were injected with 100 ul of saline and preparation of the vehicles without compound in the vehicle control group. Tactile sensitivity (Mechanical allodynia) was evaluated using von Frey monofilaments before and after treatment, and the animals were included in the study only if the withdrawal threshold value was less than 4 g. One week after surgery, CFA-infused treatment animals (n=4-6), sham-operated animals (n=12), and vehicle control animals (n=17) were tested for tactile sensitivity with von Frey monofilaments 3 trials for each animal. All Animals were placed in a stainless steel mesh chamber and habituated for 30 min in the test box. The tactile sensitivity for ipsilateral hind paw was measured using the up-and-down method (Dixon, 1980) with seven von Frey monofilaments (0.4, 1, 2, 4, 6, 8, and 15 g) to 3 trials. Tactile sensitivity test was followed by Dixon's method (Dixon, 1980). The 50% paw withdrawal threshold for each paw was calculated using the following formula: [Xth] log=[vFr] log+ky where [vFr] is the force of the last von Frey used, k=0.2249 which is the average interval (in log units) between the von Frey monofilaments, and y is a value that depends upon the pattern of withdrawal responses (Dixon, 1980).
Antiallodynic effect of compound was evaluated at the dose of 10-60 mg/kg (n=4-6), intraperitoneally administrated in a volume of 5 ul/g bw in a vehicle of 30% (v/v) PEG or 20% (v/v) Tween 80. The test was performed peak time of efficacy (0.5 or 1 hr) after compound administration.
The relative values compared to the sham (% control) were calculated and shown in Table 4, which show an antiallodynic effect of Compound 1 on CFA-induced pain model in rats.

Sprague-Dawley rats [2] = assay: Antiallodynic activity on Chung model (SNL, spinal nerve ligation); conditions: orally; for SNL efficacy %: 30 mg/kg
Source text: Male Sprague-Dawley rats (100-130 g, Orient Bio, Korea) were habituated for 1 week before the experiment and allowed free access to food and water throughout the experimentation. Room temperature and humidity were maintained at 24±2 and 50±10%, respectively. The neuropathic surgery (SNL, Spinal nerve ligation) model was done as described in Kim and Chung (1992). Briefly, an animal was put under gaseous anesthesia with isoflurane. The left lumber spinal nerve L5 and L6 were isolated and tightly ligated with 6-0 silk thread. The wound muscle was closed with Catgut® chrom 3/0 thread and skin was closed with Dafilon 3/0 tread. Sham controls were prepared in the same manner with the spinal nerves exposed, but with no ligated L5 and L6 nerves. Preparation of the vehicle controls were identical to the group treated with compound, except for administration of vehicles without compound in the vehicle control group.
Tactile sensitivity (Mechanical allodynia) was evaluated using von Frey monofilaments before and after treatment, and animals were included in the study only if the withdrawal threshold value was less than 4 g. One week after surgery, SNL-operated animals, sham-operated animals and vehicle control animals were tested for tactile sensitivity with von Frey monofilaments 3 trials in each animal. All Animals were placed in a stainless steel mash chamber and habituated for 30 min in the test cage. The tactile sensitivity for the ipsilateral hind paw was measured using the up-and-down method (Dixon, 1980) with seven von Frey monofilaments (0.4, 1, 2, 4, 6, 8, and 15 g) in 3 trials. The tactile sensitivity test was followed by Dixon's method (Dixon, 1980). The 50% paw withdrawal threshold for each paw was calculated using the following formula: [Xth] log=[vFr] log+ky where [vFr] is the force of the last von Frey used, k=0.2249 which is the average interval (in log units) between the von Frey monofilaments, and y is a value that depends upon the pattern of withdrawal responses (Dixon, 1980).
All animals were fasted 18 h before the administration of the compounds. Antiallodynic effect of compounds were evaluated at the three dose, orally administrated in a volume of 5 ul/g, bw in a vehicle of 30% (v/v) PEG 400 or 20% (v/v) Tween 80. The test was performed at the peak time of efficacy after compound administration.
The relative values compared to the sham group (% control) were calculated and shown in Table 3, which show an antiallodynic effect of the test compounds on SNL model in rats.

SMILES	MES test (po) Peak time (ICR mice) [h]	response vs control in vivo at 50 mg/kg (Sprague-Dawley rats [1]; Rattus norvegicus, ip) [%]	CFA-induced pain model Peak Time (Sprague-Dawley rats [1]) [h]	other results
C[C@H](OS(N)(=O)=O)[C@@H](O)c1ccc(Cl)cc1Cl [Example 3, (1S, 2S)-1-(2,4-dichlorophenyl)-1-hydroxypropan-2-yl sulfamate]				MES test (po) Peak time (SD rats): 4 h; MES test (po) efficacy % (SD rats; 20 mg/kg): 16.6%
C[C@H](OS(N)(=O)=O)[C@@H](O)c1cccc(Cl)c1Cl [Example 9, (1S, 2S)-1-(2,3-dichlorophenyl)-1-hydroxypropan-2-yl sulfamate]	4			ED50 (ICR mice): 61.8 mg/kg
CC[C@H](OS(N)(=O)=O)[C@@H](O)c1ccccc1Cl [Example 11, (1S, 2S)-1-(2-chlorophenyl)-1-hydroxybutan-2-yl sulfamate]	2			responders at 50 mg/kg (ICR mice): 25%; MES test (po) Peak time (SD rats): 2 h; MES test (po) efficacy % (SD rats; 24 mg/kg): 33.3%
CC[C@@H](OS(N)(=O)=O)[C@H](O)c1ccccc1Cl [Example 12, (1R, 2R)-1-(2-chlorophenyl)-1-hydroxybutan-2-yl sulfamate]		21.9	0.5	MES test (po) Peak time (SD rats): 1 h; MES test (po) efficacy % (SD rats; 100 mg/kg): 100%
CC(C)[C@H](OS(N)(=O)=O)[C@@H](O)c1ccccc1Cl [Example 13, (1S, 2S)-1-(2-chlorophenyl)-1-hydroxy-3-methylbutan-2-yl sulfamate]	1			responders at 50 mg/kg (ICR mice): 25%
CC(C)[C@@H](OS(N)(=O)=O)[C@H](O)c1ccccc1Cl [Example 14, (1R, 2R)-1-(2-chlorophenyl)-1-hydroxy-3-methylbutan-2-yl sulfamate]	1	18.4	1	responders at 50 mg/kg (ICR mice): 25%
C[C@H](OS(N)(=O)=O)[C@@H](O)c1ccccc1F [Example 17, (1S, 2S)-1-(2-fluorophenyl)-1-hydroxypropan-2-yl sulfamate]			0.5	ED50 (Sprague-Dawley rats [2]; Rattus norvegicus, po, at peak time): 46.9 mg/kg; SNL Peak Time (Sprague-Dawley rats [2]): 1 h; ED50 (Sprague-Dawley rats [1]; Rattus norvegicus, ip, at peak time): 48.7 mg/kg
CC(C)NS(=O)(=O)O[C@@H](C)[C@@H](O)c1ccccc1Cl [Example 37, (1S, 2S)-1-(2-chlorophenyl)-1-hydroxypropan-2-yl isopropylsulfamate]				MES test (po) Peak time (SD rats): 2 h; MES test (po) efficacy % (SD rats; 10 mg/kg): 16.6%
CC(C)NS(=O)(=O)O[C@H](C)[C@H](O)c1ccccc1Cl [Example 38, (1R, 2R)-1-(2-chlorophenyl)-1-hydroxypropan-2-yl isopropylsulfamate]	2			responders at 50 mg/kg (ICR mice): 50%
COCO[C@@H](c1cccc(Cl)c1Cl)[C@H](C)OS(N)(=O)=O [Example 53, (1S, 2S)-1-(2,3-dichlorophenyl)-1-(methoxymethoxy)propan-2-yl sulfamate]	2			ED50 (ICR mice): 67.8 mg/kg
COCO[C@@H](c1c(Cl)cccc1Cl)[C@H](C)OS(N)(=O)=O [Example 57, (1S, 2S)-1-(2,6-dichlorophenyl)-1-(methoxymethoxy)propan-2-yl sulfamate]				SNL Peak Time (Sprague-Dawley rats [2]): 1 h; SNL efficacy % (Sprague-Dawley rats [2]): 30(26.3%)
COCO[C@H](c1c(Cl)cccc1Cl)[C@@H](C)OS(N)(=O)=O [Example 58, (1R, 2R)-1-(2,6-dichlorophenyl)-1-(methoxymethoxy)propan-2-yl sulfamate]	1	17.7	0.5	ED50 (ICR mice): 54.4 mg/kg
COCO[C@@H](c1c(F)cccc1Cl)[C@H](C)OS(N)(=O)=O [Example 61, (1S, 2S)-1-(2-chloro-6-fluorophenyl)-1-(methoxymethoxy)propan-2-yl sulfamate]	2			responders at 30 mg/kg (ICR mice): 33.3%
CC[C@@H](OS(N)(=O)=O)[C@H](OCOC)c1ccccc1Cl [Example 71, (1R, 2R)-1-(2-chlorophenyl)-1-(methoxymethoxy)butan-2-yl sulfamate]		41.9	0.5	SNL Peak Time (Sprague-Dawley rats [2]): 0.5 h; SNL efficacy % (Sprague-Dawley rats [2]): 30(31.9%)
COCO[C@@H](c1ccccc1F)[C@H](C)OS(N)(=O)=O [Example 72, (1S, 2S)-1-(2-fluorophenyl)-1-(methoxymethoxy)propan-2-yl sulfamate]		25.9	0.5	
COCO[C@@H](c1ccccc1I)[C@H](C)OS(N)(=O)=O [Example 74, (1S, 2S)-1-(2-iodophenyl)-1-(methoxymethoxy)propan-2-yl sulfamate]	0.5	19.9	0.5	responders at 30 mg/kg (ICR mice): 33.3%
COCO[C@@H](c1ccccc1Cl)[C@H](C)OS(=O)(=O)NC1CC1 [Example 78, (1S, 2S)-1-(2-chlorophenyl)-1-(methoxymethoxy)propan-2-yl cyclopropylsulfamate]	4			responders at 50 mg/kg (ICR mice): 25%
COCO[C@H](c1ccccc1Cl)[C@@H](C)OS(=O)(=O)NC1CC1 [Example 79, (1R, 2R)-1-(2-chlorophenyl)-1-(methoxymethoxy)propan-2-yl cyclopropylsulfamate]	1			responders at 50 mg/kg (ICR mice): 25%
CO[C@@H](c1ccccc1I)[C@H](C)OS(N)(=O)=O [Example 92, (1S,2S)-1-(2-iodophenyl)-1-methoxypropan-2-yl sulfamate]		31.8	0.5	
C[C@H](OS(N)(=O)=O)[C@@H](O)c1sc(Cl)nc1Cl [Example 102, (1R,2S)-1-(2,4-dichlorothiazol-5-yl)-1-hydroxypropan-2-yl sulfamate]	2			ED50 (ICR mice): 42.7 mg/kg
COCO[C@@H](c1sc(Cl)nc1Cl)[C@H](C)OS(N)(=O)=O [Example 103, (1R,2S)-1-(2,4-dichlorothiazol-5-yl)-1-(methoxymethoxy)propan-2-yl sulfamate]	2			ED50 (ICR mice): 52.7 mg/kg
